Assay results reported in ChEMBL document CHEMBL1201862, “PubChem BioAssay data set” (2004).
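Values below derive from 48-hour exposures of cells grown in 96-well plates, with endpoints linearly interpolated between the two concentrations bracketing the appropriate inhibition level. Here, GI50 denotes the concentration required for 50% inhibition of growth.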 Activity calls are given as the source filed them. Rule as the data show it: active = GI50 up to about 1.1 µM and inactive = higher.

Key:
Assay in all cases: growth of human tumour cells (NCI), 48 h
CCRF-CEM = tested on: CCRF-CEM
NCI-H226 = tested on: NCI-H226
M14 = tested on: M14
SK-MEL-2 = tested on: SK-MEL-2
NCI-H522 = tested on: NCI-H522
HT-29 = tested on: HT-29
HOP-62 = tested on: HOP-62
HL-60 = tested on: HL-60
COLO 205 = tested on: COLO 205
OVCAR-5 = tested on: OVCAR-5
K562 = tested on: K562
MOLT-4 = tested on: MOLT-4
786-0 = tested on: 786-0
BT-549 = tested on: BT-549
MDA-MB-435 = tested on: MDA-MB-435
NCI/ADR-RES = tested on: NCI/ADR-RES
ACHN = tested on: ACHN
MDA-MB-231 = tested on: MDA-MB-231
IGROV-1 = tested on: IGROV-1
SF-268 = tested on: SF-268
MCF7 = tested on: MCF7
MDA-N = tested on: MDA-N
SW-620 = tested on: SW-620
PC-3 = tested on: PC-3
SF-539 = tested on: SF-539
NCI-H23 = tested on: NCI-H23
LOX IMVI = tested on: LOX IMVI
SF-295 = tested on: SF-295
SK-OV-3 = tested on: SK-OV-3
U-251 = tested on: U-251
T47D = tested on: T47D
CAKI-1 = tested on: CAKI-1
Hs-578T = tested on: Hs-578T
A498 = tested on: A498
HOP-92 = tested on: HOP-92
A549 = tested on: A549
EKVX = tested on: EKVX
UACC-62 = tested on: UACC-62
TK-10 = tested on: TK-10
OVCAR-4 = tested on: OVCAR-4
RPMI-8226 = tested on: RPMI-8226
HCT-116 = tested on: HCT-116
SR = tested on: SR
SK-MEL-5 = tested on: SK-MEL-5
HCC 2998 = tested on: HCC 2998
HCT-15 = tested on: HCT-15
DU-145 = tested on: DU-145
SK-MEL-28 = tested on: SK-MEL-28
UO-31 = tested on: UO-31
UACC-257 = tested on: UACC-257
KM12 = tested on: KM12
OVCAR-3 = tested on: OVCAR-3
SN12C = tested on: SN12C
OVCAR-8 = tested on: OVCAR-8
SNB-19 = tested on: SNB-19
RXF 393 = tested on: RXF 393
NCI-H460 = tested on: NCI-H460

Measured: GI50

O=C(c1ccccn1)C1(N2CCCCC2)CCCCC1
> 100 µM: HCT-15
inactive: CCRF-CEM > 100 µM | NCI-H226 > 100 µM | M14 > 100 µM | SK-MEL-2 > 100 µM | NCI-H522 15.5 µM | HT-29 78 µM | HOP-62 > 100 µM | HL-60 88.3 µM | COLO 205 > 100 µM | OVCAR-5 > 100 µM | K562 > 100 µM | MOLT-4 > 100 µM | 786-0 > 100 µM | BT-549 > 100 µM | MDA-MB-435 > 100 µM | NCI/ADR-RES 46.5 µM | ACHN > 100 µM | MDA-MB-231 > 100 µM | IGROV-1 87.7 µM | SF-268 17.5 µM | MCF7 > 100 µM | MDA-N > 100 µM | SW-620 > 100 µM | PC-3 > 100 µM | SF-539 > 100 µM | NCI-H23 91.6 µM | LOX IMVI > 100 µM | SF-295 > 100 µM | SK-OV-3 > 100 µM | U-251 > 100 µM | T47D 46 µM | CAKI-1 > 100 µM | Hs-578T 15.5 µM | A498 > 100 µM | HOP-92 9.75 µM | A549 > 100 µM | EKVX > 100 µM | UACC-62 > 100 µM | TK-10 > 100 µM | OVCAR-4 > 100 µM | RPMI-8226 50.2 µM | HCT-116 > 100 µM | SR > 100 µM | SK-MEL-5 > 100 µM | HCC 2998 > 100 µM | DU-145 > 100 µM | SK-MEL-28 > 100 µM | UO-31 > 100 µM | UACC-257 > 100 µM | KM12 > 100 µM | OVCAR-3 > 100 µM | SN12C > 100 µM | OVCAR-8 > 100 µM | SNB-19 > 100 µM

C[C@@]1(O)C2C3CC4C5C3C1[C@](O)(C42)[C@H]5Br (some centres undefined)
> 100 µM: HCT-15
inactive: CCRF-CEM > 100 µM | RXF 393 > 100 µM | M14 > 100 µM | SK-MEL-2 > 100 µM | NCI-H522 > 100 µM | HT-29 > 100 µM | HOP-62 > 100 µM | HL-60 > 100 µM | COLO 205 > 100 µM | OVCAR-5 > 100 µM | K562 > 100 µM | MOLT-4 > 100 µM | 786-0 > 100 µM | BT-549 > 100 µM | MDA-MB-435 > 100 µM | NCI/ADR-RES > 100 µM | ACHN > 100 µM | MDA-MB-231 > 100 µM | IGROV-1 > 100 µM | SF-268 > 100 µM | MCF7 > 100 µM | MDA-N > 100 µM | SW-620 > 100 µM | PC-3 > 100 µM | NCI-H460 > 100 µM | SF-539 > 100 µM | NCI-H23 > 100 µM | LOX IMVI > 100 µM | SF-295 > 100 µM | U-251 > 100 µM | T47D > 100 µM | CAKI-1 > 100 µM | Hs-578T > 100 µM | A498 > 100 µM | HOP-92 > 100 µM | A549 > 100 µM | EKVX > 100 µM | UACC-62 > 100 µM | TK-10 > 100 µM | OVCAR-4 > 100 µM | HCT-116 > 100 µM | SR > 100 µM | SK-MEL-5 > 100 µM | HCC 2998 > 100 µM | DU-145 > 100 µM | SK-MEL-28 > 100 µM | UO-31 > 100 µM | UACC-257 > 100 µM | KM12 > 100 µM | OVCAR-3 > 100 µM | SN12C > 100 µM | OVCAR-8 > 100 µM | SNB-19 > 100 µM
